Source: publication PMC10514301 (Signal Transduction and Targeted Therapy, 2023)
“And” between values parts separate entries of the source, which are not always exact repeats. Identical values can stand only once. Like-named read-outs stand apart in the source and are kept apart here.

Columns and labels:
HCoV-OC43 [1] = experiment: Median effect plots of individual drugs against HCoV-OC43 in RD cells; assay type: cell-based
HCoV-229E [2] = experiment: Antiviral activity against HCoV-229E in Huh-7 cells (qRT-PCR); assay type: cell-based; conditions: Human coronavirus 229E, Huh-7, 48 h, read-out: EC50 mean ± sd, Huh-7, 229E
HCoV-OC43 [3] = experiment: Antiviral activity against HCoV-OC43 in RD cells (qRT-PCR); assay type: cell-based; conditions: Betacoronavirus 1, OC43, RD, 48 h, read-out: EC50 mean ± sd, RD, OC43
HCoV-OC43 [4] = experiment: Antiviral activity against HCoV-OC43 in Huh-7 cells (qRT-PCR); assay type: cell-based; conditions: Betacoronavirus 1, OC43, Huh-7, 48 h, read-out: EC50 mean ± sd, Huh-7, OC43
HCoV-229E [5] = experiment: Antiviral activity against HCoV-229E in MRC5 cells (qRT-PCR); assay type: cell-based; conditions: Human coronavirus 229E, MRC5, 48 h, read-out: EC50 mean ± sd, MRC5, 229E
[6] = Plasma pharmacokinetics after oral administration in C57BL/6J mice; conditions: for decrease of plasma Cmax in the VV116-nirmatrelvir combination compared with the individual study / decrease of plasma exposure in the VV116-nirmatrelvir combination compared with the individual study: oral VV116 + nirmatrelvir + ritonavir 50 + 100 + 50 mg/kg
Description: The PK studies were conducted at Suzhou HQ Bioscience Co., Ltd. Eighteen C57BL/6J mice (N = 6 for each group, male) were randomly divided into three groups, and fasted for 12 h before dosing. […] The vehicle for oral administration of the test compounds was 5% DMSO + 5% Solutol HS-15 + 5% PEG400 + 85% Saline. Blood sample (70 μL) was collected from the orbit of the first three mice in each group at 0.25, 1.0, 4.0, and 8.0 and the last three mice in each group at 0.5, 2.0, 6.0, and 24 h post-dosing. The sample was taken into EDTA-K2 tubes, and centrifuged at 11,000 rpm for 5 min. The plasma was separated and frozen in a refrigerator at −70 °C for testing. The operation was conducted under an ice water bath. The concentration of analyte in plasma was determined by LC–MS/MS.

HCoV-OC43 [7] = experiment: In vivo efficacy against HCoV-OC43 in suckling mice; design: species or system suckling Balb/c mice
Cytotoxicity in RD cells = assay type: cell-based; conditions: human
[8] = Betacoronavirus 1, read-out: IC50 (drug concentration that inhibit 50% viral replication), HCoV-OC43, RD cells, MOI 0.1, 48 hpi, median effect plot
[9] = Betacoronavirus 1, OC43, RD, read-out: IC50 (drug concentration that inhibit 50% viral replication)
[10] = male, C57BL/6J, mouse, plasma, po, 50 mg/kg

CC(C)(C)NC(=O)N[C@H](C(=O)N1C[C@H]2[C@@H]([C@H]1C(=O)NC(CC1CCC1)C(=O)C(N)=O)C2(C)C)C(C)(C)C (some centres unmarked) [Boceprevir, boceprevir]
IC50 (HCoV-OC43 [1]; [8]): 26900 nM
slope steepness (m) of the dose-response curve (HCoV-OC43 [1]; OC43): 11.2

N#C[C@@]1(c2ccc3c(N)ncnn23)O[C@H](CO)[C@@H](O)[C@H]1O [GS-441524]
EC50 (HCoV-229E [2]): 560 ± 82 nM
EC50 (HCoV-OC43 [3]): 460 ± 79 nM
EC50 (HCoV-OC43 [4]): 1400 ± 55 nM
EC50 (HCoV-229E [5]): 30 ± 21 nM

Cc1cccc(C)c1OCC(=O)N[C@@H](Cc1ccccc1)[C@@H](O)C[C@H](Cc1ccccc1)NC(=O)[C@H](C(C)C)N1CCCNC1=O [Lopinavir, lopinavir]
IC50 (HCoV-OC43 [1]; [8]): 1440 nM
slope steepness (m) of the dose-response curve (HCoV-OC43 [1]; OC43): 1.94

O=c1nc(NO)ccn1[C@@H]1O[C@H](CO)[C@@H](O)[C@H]1O [NHC, β-d-N4-hydroxycytidine]
slope steepness (m) of the dose-response curve (HCoV-OC43 [1]; HCoV-OC43, RD cells, MOI 0.1, 48 hpi, median effect plot): 2.80
IC50 (HCoV-OC43 [1]; read-out: IC50 (drug concentration that inhibit 50% viral replication), HCoV-OC43, RD cells, MOI 0.1, 48 hpi, median effect plot): 5680 nM

CC(C)(C)[C@H](NC(=O)C(F)(F)F)C(=O)N1C[C@H]2[C@@H]([C@H]1C(=O)N[C@H](C#N)C[C@@H]1CCNC1=O)C2(C)C [Nirmatrelvir, nirmatrelvir]
IC50 (HCoV-OC43 [1]; [9]): 121 nM
slope steepness (m) of the dose-response curve (HCoV-OC43 [1]; OC43): 4.49
decrease of plasma Cmax in the VV116-nirmatrelvir combination compared with the individual study [6]: 12.5%
decrease of plasma exposure in the VV116-nirmatrelvir combination compared with the individual study [6]: 19.8%
viral loads (titers, immunoplaque assay) in organs (HCoV-OC43 [7]; VV116 50 mpk, nirmatrelvir 10 and 20 mpk with ritonavir, the two combinations): less than the limit of detection (LOD)
inflammation (cytokine gene expression) in the brain (HCoV-OC43 [7]; VV116 50 mpk, nirmatrelvir 10 mpk, 25 mpk): dramatically reduced inflammation
lung histopathology (hematoxylin and eosin) (HCoV-OC43 [7]; VV116 50 mpk, nirmatrelvir 10 mpk, 25 mpk, Combo 1, Combo 2): significantly improved
inflammation suppression (cytokine gene expression), especially IL-6 in the lungs (HCoV-OC43 [7]; individual VV116 and nirmatrelvir treatments versus Combo 1 and Combo 2): limited inflammation suppression
viral copies in the brain (HCoV-OC43 [7]; oral once a day, VV116 25 and 50 mpk, nirmatrelvir 25 mpk with ritonavir 50 mpk): almost completely cleared

Cc1cnc(C(=O)N[C@H]2CCCCC/C=C\[C@@H]3C[C@@]3(C(=O)NS(=O)(=O)C3CC3)NC(=O)[C@@H]3C[C@@H](Oc4nc5ccccc5c5ccccc45)CN3C2=O)cn1 [Paritaprevir, paritaprevir]
IC50 (HCoV-OC43 [1]; [8]): 2500 nM
slope steepness (m) of the dose-response curve (HCoV-OC43 [1]; OC43): 1.55

CCC(CC)COC(=O)[C@H](C)N[P@](=O)(OC[C@H]1O[C@@](C#N)(c2ccc3c(N)ncnn23)[C@H](O)[C@@H]1O)Oc1ccccc1 [RDV, remdesivir]
IC50 (HCoV-OC43 [1]; [9]): 20.2 nM
slope steepness (m) of the dose-response curve (HCoV-OC43 [1]; OC43): 2.40
EC50 (HCoV-229E [2]): 41 nM
EC50 (HCoV-OC43 [3]): 21 ± 35 nM
CC50 (Cytotoxicity in RD cells): 1570 nM

NC(=O)c1ncn([C@@H]2O[C@H](CO)[C@@H](O)[C@H]2O)n1 [Ribavirin, ribavirin]
IC50 (HCoV-OC43 [1]; [8]): 49500 nM
slope steepness (m) of the dose-response curve (HCoV-OC43 [1]; OC43): 2.19

COc1ccc2c(O[C@@H]3C[C@H]4C(=O)N[C@]5(C(=O)NS(=O)(=O)C6CC6)C[C@H]5/C=C\CCCCN(C)C(=O)[C@@H]4C3)cc(-c3nc(C(C)C)cs3)nc2c1C [Simeprevir, simeprevir]
IC50 (HCoV-OC43 [1]; [8]): 2220 nM
slope steepness (m) of the dose-response curve (HCoV-OC43 [1]; OC43): 2.18

[2H]c1cc([C@]2(C#N)O[C@H](CO)[C@@H](O)[C@H]2O)n2ncnc(N)c12 [X1]
EC50 (HCoV-229E [2]): 570 ± 70 nM
EC50 (HCoV-OC43 [3]): 800 ± 420 nM
EC50 (HCoV-OC43 [4]): 1100 ± 61 nM
EC50 (HCoV-229E [5]): 60 ± 160 nM
AUC(0-t) [6, 10]: 19500 ng·h/mL
Cmax [6, 10]: 10700 ng/mL and 36.6 µM
decrease of plasma Cmax in the VV116-nirmatrelvir combination compared with the individual study [6]: 20.3%
decrease of plasma exposure in the VV116-nirmatrelvir combination compared with the individual study [6]: 13.5%
